# Experimental data: article PMC12814168, “Fast, Bright, and Reversible Fluorescent Labeling of Rhodamine-Binding Proteins” (Journal of the American Chemical Society, 2025)
# Values joined by “and” are separate entries in the source; they are usually repeats but may differ in a detail not shown here. Identical values can stand only once. Like-named read-outs stand apart in the source and are kept apart here.
# How the values were obtained:
# [1] = target: T1, Rho-tag (Chlorobaculum tepidum, UniProt Q8KFZ1, A66M/D121K/D126E/E36V/E70D/F125Y/F62Y/G107D/G67E/H40T/K51V/M64F/N138A/Q25R/S152V/S33N/S65D/V17Q/V87I); assay: Fluorescence polarization at constant 20 nM TMR-linked ligand with serial Rho-tag dilutions (0-200 uM), pH 7.3, 25 °C, three independent measurements.; format: binding; settings: SD, n = 3
# T1 construct: gene CT0179; His10-TEV, recombinant from E. coli
# T1 sequence (Q8KFZ1 entry or part of it with the stated changes): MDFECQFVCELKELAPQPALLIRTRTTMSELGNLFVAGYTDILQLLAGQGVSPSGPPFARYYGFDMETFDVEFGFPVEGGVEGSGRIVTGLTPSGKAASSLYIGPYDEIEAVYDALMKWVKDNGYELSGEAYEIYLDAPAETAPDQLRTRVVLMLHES
# Description: (§19) Binding affinities KD was derived from fluorescence polarization experiments at constant dye concentration
# (§20) (20 nM) and serial protein dilutions (0 – 200 µM). Average data and standard deviation from three
# independent measurements (N = 3).
# (§21) Biochemical and Spectral Characterization
# (§22) Serial protein dilutions (0 – 200 μM) were prepared in activity buffer and transferred to black flat bottom low-volume 384-well plates (Greiner). Rhodamine dyes (0.5 – 20 nM) were added in activity buffer containing 1% (w/v) bovine serum albumin (BSA, Fraction V, Roth) using a 384-channel VIAFLO pipettor (Integra) at a 1:1 mixing ratio.
# (§23) JF 646) or fluorescence polarization (FP, all other dyes) measurements were conducted on a Spark20M microplate reader (Tecan) at 25 °C in technical triplicates. Excitation and emission settings are summarized in Method Table 5.
# (§24) For data processing, technical triplicates were averaged and normalized between 0 ( i.e. free dye)
# (§25) and 1 (fully bound dye). The dissociation constants KD were determined by fitting a single-site
# binding model (Equation 2) to the data.
# (§26) at least three independent experiments (N ≥ 3), unless otherwise mentioned.
# (§27) between dyes or proteins, log 10 fold changes relative to a reference e.g., parental protein were
# (§28) Y: fluorescence intensity [a.u.] or fluorescence polarization [mFP], A: min. FI / FP, B: max.
# (§29) protein concentration [mol/L], h: Hill coefficient, K D: dissociation constant [mol/L].
# [2] = target: T2, Rho-tag (Chlorobaculum tepidum, UniProt Q8KFZ1, V17Q/Q25R/S33N/E36V/H40T/K51V/F62Y/M64F/S65D/A66M/G67E/E70D/V87I/G107D/D121K/F125Y/D126E/N138A/S152V); assay: Fluorescence polarization with 0.5-20 nM dye (0.5 nM TMR in Figure S6 titrations) and serial protein dilutions in 50 mM HEPES, 50 mM NaCl, pH 7.3 with BSA, 25 °C, N at least 3.; format: binding; settings: SD, n = 3; read-out: K D, other Rho-tag forms and JF549
# T2 construct: gene CT0179; His10-TEV, recombinant from E. coli
# T2 sequence (Q8KFZ1 entry or part of it with the stated changes): as above
# Description: (§1) electroporation buffer, aliquoted (12 x 50 µL) on ice, and used immediately for electroporation with 1–5 µg DNA precipitated DNA. Cells were transferred to pre-chilled 0.2 cm gap electroporation cuvettes (Bio-Rad), and electroporated using a Gene Pulser Xcell (0.54 kV, 25 µF, infinite resistance, exponential decay). Cells were recovered in 2 mL YPDS at 30 °C, shaking for 1 h and afterwards expanded in 100 mL SDCAA at 30 °C for 2 days.
# (§2) YSD protein expression, staining and sorting
# (§3) SGCAA medium was used for induction and cells were grown at 30 °C, 250 rpm for 20 h. […] Samples were filtered through 5 mL round-bottom tubes with cell strainer caps (Falcon) and analyzed directly by FACS. […]
# (§4) PMT voltages were set based on negative controls (no protein expression). Gates were applied for FSC, SSC, and fluorescence; signals >10³ (bilirubin or rhodamine dyes) were considered positive, background ≤10². […]
# (§5) regions were amplified via KOD PCR reaction using primers containing unique barcodes (NGS adaptor ligation oligos, Eurofins Genomics) analyzed by NGS sequencing (Illumina technology, Eurofins Genomics). The NGS results were analyzed using a custom-build pipeline as described previously. Alternatively, plasmid DNA was transformation into E.cloni 10G and single colonies were analyzed by Sanger sequencing (Eurofins). […]
# (§6) Stopped-flow kinetic fluorescence anisotropy […]
# (§7) FA: fluorescence anisotropy, B: max. […]
# [3] = Spectral properties: absolute quantum yield, extinction coefficient, brightness; format: physicochemical
# Description: Serially fluorophore dilutions (0 – 3 μM) were prepared in activity buffer in presence or absence […]
# Measurements were performed in 200 μL volumes in clear-bottom non-binding […]
# recorded on the Spark20M microplate reader (Tecan). Following baseline correction, the absorbance was plotted against the dye concentration and the data were fitted linearly. Path […]
# coefficients were calculated via the Lambert-Beer law (Equation 1).
# Absolute quantum yields were determined at room temperature using a Hamamatsu Quantaurus-QY spectrometer (C11347 model). Rhodamine dyes (1 μM) were tested with and without excess […]
# Samples were prepared in 800 μL glass vials
# Quantum yield represent as mean ± standard deviation from three technical replicates. The brightness was thereafter calculated using Equation 5. […]
# [4] = target: T3, BABP (Gallus gallus, UniProt P80226); assay: Fluorescence polarization at constant 20 nM TMR with serial protein dilutions (0-200 uM) in 50 mM HEPES, 50 mM NaCl, pH 7.3 with BSA, 25 °C, N at least 3.; format: binding; settings: SD, n = 3
# T3 construct: gene FABP1; recombinant from E. coli, N-terminal His10-TEV (pET51b), 15 kDa
# T3 sequence (P80226 2-126): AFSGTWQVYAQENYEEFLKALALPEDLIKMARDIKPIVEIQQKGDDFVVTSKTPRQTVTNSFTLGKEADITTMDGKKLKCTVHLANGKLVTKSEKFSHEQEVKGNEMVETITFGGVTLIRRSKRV
# Excerpt: (§8) 1 Dye and candidate selection for the development of Rho-tags. A) Chemical structure of TMR and SiR and their corresponding HaloTag Ligand (HTL) derivatives. […] B) BOILED-Egg representation generated with SwissADME for molecules shown in (A). Correlation between the topological polar surface area (TPSA) and predicted water partitioning coefficient (WlogP). Gray area–predicted low passive absorption to the gastrointestinal (GI) system and limited brain access (BBB). Egg white–high probability for GI absorption. Egg yolk–high probability for BBB permeation. Blue dot–substrate is predicted to be actively exported from the central nervous system. […]
# as §3, §4
# (§9) regions were amplified via KOD PCR reaction using primers containing unique barcodes (NGS adaptor ligation oligos, Eurofins Genomics) analyzed by NGS sequencing (Illumina technology, Eurofins Genomics). The NGS results were analyzed using a custom-build pipeline as described previously. […]
# [5] = target: T4, SAV2435 (Staphylococcus aureus, UniProt A0A0H3K0Y5); assay: as above; format: binding; settings: SD, n = 3
# T4 construct: recombinant from E. coli, N-terminal His10-TEV (pET51b), 20 kDa
# T4 sequence (A0A0H3K0Y5 entry or part of it): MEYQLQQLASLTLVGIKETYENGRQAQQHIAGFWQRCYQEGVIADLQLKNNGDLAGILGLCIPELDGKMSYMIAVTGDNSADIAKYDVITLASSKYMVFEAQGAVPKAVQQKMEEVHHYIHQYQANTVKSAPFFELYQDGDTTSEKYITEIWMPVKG
# Excerpt: as §8, §3, §4, §9
# [6] = target: cpRho-tag; assay: Fluorescence polarization with 0.5-20 nM dye (0.5 nM TMR in Figure S6 titrations) and serial protein dilutions in 50 mM HEPES, 50 mM NaCl, pH 7.3 with BSA, 25 °C, N at least 3.; format: binding; settings: SD, n = 3; read-out: K D, other Rho-tag forms and JF549
# Description: as §1, §2, §3, §4, §5, §6, §7
# [7] = target: T2, Rho-tag; assay: Fluorescence polarization at constant 20 nM TMR-linked ligand with serial Rho-tag dilutions (0-200 uM), pH 7.3, 25 °C, three independent measurements.; format: binding; settings: SD, n = 3; read-out: KD [µM] (Supplementary Table 4)
# Description: as §19, §20
# independent measurements (N = 3).
# as §21, §22, §23, §24, §25
# binding model (Equation 2) to the data.
# as §26, §27, §28, §29
# [8] = target: T5, variant 2; assay: Fluorescence intensity titration of dye (not given; JF646 by comparison with the text) with serial protein dilutions, 50 mM HEPES, 50 mM NaCl, pH 7.3 with BSA, 25 °C, n at least 3.; format: binding; settings: SD, n = 3; read-out: KD [M] (Supplementary Table 10, replicates)
# T5 construct: Rho-tag background, loop2 library hit
# Excerpt: (§10) Supplementary Table 10 | Characterization of putative SiR-tag variants. variant sequence KD [M] TM [° C]
# (§11) Binding affinity determined via fluorescence intensity. *data from single replicate. If not stated otherwise, average data and standard deviation from n ≥ 3 individual replicates. Thermostability (T M) determined via […]
# (§12) Supplementary Table 11 | Plasmids deposited on Addgene
# (§13) Addgene ID plasmid insert expression organism
# (§14) 249667 pcDNA5/FRT/TO H2B-Rho-tag-T2A-mEGFP mammalian cells
# (§15) 249668 pcDNA5/FRT/TO H2B-SiR-tag-T2A-mEGFP mammalian cells
# (§16) 249669 pcDNA5/FRT/TO CD86-Rho-tag mammalian cells
# (§17) 249670 pcDNA5/FRT/TO CD86-SiR-tag mammalian cells
# (§18) 249671 pTol2-HuC Rho-tag-Pro30-mEGFP-NLS3x zebrafish […]
# as §3, §4, §9
# [9] = target: T6, SiR-tag; assay: as above; format: binding; settings: SD, n = 3; read-out: KD [M] (Supplementary Table 10, replicates)
# T6 construct: 2 + PROSS8 background combined with P57M/F58Y/R60L and G63N/F64K/D65N/M66H; His10-TEV
# Excerpt: as §10, §11, §12, §13, §14, §15, §16, §17, §18, §3, §4, §9
# [10] = with 20 µM Rho-tag (TMR, JF549) or SiR-tag (SiR, JF646)
compound,measurement,setting,value
"CN(C)c1ccc2c(-c3cc(C(=O)NCCOCCOCCCCCCCl)ccc3C(=O)[O-])c3ccc(=[N+](C)C)cc-3oc2c1 [TMR-HTL, tetramethylrhodamine-6-carboxyl HaloTag Ligand]",Kd,[1],9800 nM
"O=C1OC2(c3ccc(N4CCC4)cc3Oc3cc(N4CCC4)ccc32)c2ccccc21 [JF549, Janelia Fluor 549 (TMR derivative)]",Kd,[2],4 nM
O=C1OC2(c3ccc(N4CCC4)cc3Oc3cc(N4CCC4)ccc32)c2ccccc21 [JF549],Absolute quantum yield Φ,[3],0.844 ± 0.008
same,Brightness ε × Φ,[3],128 ± 3
same,Extinction coefficient ε,[3],152 ± 22
same,Extinction coefficient ε,[3]; buffer,101 ± 08 M-1cm-1 × 103
same,Absolute quantum yield Φ,[3]; buffer (unbound dye),0.842 ± 0.012
same,Absolute quantum yield Φ,[3]; [10],0.87 ± 0.02 and 0.871 ± 0.018
same,Brightness ε × Φ,[3]; [10],105 ± 4 M-1cm-1 × 103
same,Extinction coefficient ε,[3]; [10],121 ± 22 M-1cm-1 × 103
C[Si]1(C)c2cc(N3CCC3)ccc2C2(OC(=O)c3ccccc32)c2ccc(N3CCC3)cc21 [JF646],Absolute quantum yield Φ,[3],0.554 ± 0.011
same,Extinction coefficient ε,[3],162 ± 12
same,Brightness ε × Φ,[3]; buffer,051 ± 1 M-1cm-1 × 103
same,Extinction coefficient ε,[3]; buffer,106 ± 24 M-1cm-1 × 103
same,Absolute quantum yield Φ,[3]; buffer (unbound dye),0.477 ± 0.024
same,Absolute quantum yield Φ,[3]; [10],0.660 ± 0.018
same,Extinction coefficient ε,[3]; [10],152 ± 17 M-1cm-1 × 103
"CN(C)c1ccc2c(-c3ccccc3C(=O)[O-])c3ccc(N(C)C)cc3[o+]c2c1 [TMR, tetramethylrhodamine]",Kd,[4],34000 nM
same,Kd,[5],17000 nM
same,Absolute quantum yield Φ,[3]; HaloTag7-bound,0.542 ± 0.013
same,Brightness ε × Φ,[3]; HaloTag7-bound,55 ± 3 M-1cm-1 × 103
same,Extinction coefficient ε,[3]; HaloTag7-bound,101 ± 08 M-1cm-1 × 103
same,Brightness ε × Φ,[3]; buffer,39 ± 2 M-1cm-1 × 103
same,Extinction coefficient ε,[3]; buffer,089 ± 11 M-1cm-1 × 103
same,Absolute quantum yield Φ,[3]; buffer (unbound dye),0.44 ± 0.01 and 0.439 ± 0.011
same,Absolute quantum yield Φ,[3]; [10],0.73 ± 0.02 and 0.728 ± 0.019
same,Brightness ε × Φ,[3]; [10],75 ± 1 M-1cm-1 × 103
same,Extinction coefficient ε,[3]; [10],103 ± 21 M-1cm-1 × 103
same,Kd,[6],6.8 nM
tetramethylrhodamine-6-carboxyl SNAP-tag ligand BG (benzylguanine) [TMR-BG],Kd,[7],0.4 µM
"CN(C)c1ccc2c(-c3cc(C(=O)NCCOCCOCCCCCNS(C)(=O)=O)ccc3C(=O)[O-])c3ccc(=[N+](C)C)cc-3oc2c1 [TMR-S5 (xHTL), tetramethylrhodamine-6-carboxyl exchangeable HaloTag Ligand S5]",Kd,[7],18.8 µM
tetramethylrhodamine-6-carboxyl SNAP-tag ligand CP (chloropyrimidine) [TMR-CP],Kd,[7],1.9 µM
"C[Si]1(C)c2cc(N3CCC3)ccc2C2(OC(=O)c3ccccc32)c2ccc(N3CCC3)cc21 [JF646, Janelia Fluor 646 (SiR derivative)]",Kd,[8],9.1e-08 M
same,Kd,[9],2e-08 M
